Source: US20130184294A1, “Pyrimidones for Treatment of Potassium Channel Related Diseases” (Pfizer Inc., priority 2010, published 2013)

Target: T1, Kv7.2/7.3 channels (Homo sapiens, UniProt O43525+O43526)
T1 construct: The entire construct for Kv7.2 and Kv7.3 was subcloned into the pIRESneo3 and pIREShygro3 expression vectors; expressed in transfected cells
Assay: Kv7.2/3 channel opening activity, IonWorks planar patch-clamp of K-current at 0 mV
Type: cell-based
Settings: CHO-K1 cells expressing human Kv7.2/7.3; IonWorks Quattro, step from -80 mV to 0 mV, 7-point concentration curves
Excerpt: Biological Assay for Kv7.2/3 Channel Opening Activity
Human Kv7.2 and Kv7.3 clones were obtained from GeneDynamics (Eugene, Oreg.). Both human Kv7.2/pIRESneo3 and human Kv7.3/pIREShygro3 expression vectors were constructed using a combination of fragments amplified from a human hippocampus library (extending from a NheI site near the 5′ end through the stop codon) and synthetic oligonucleotides (extending from the start codon to the BamHI site). The entire construct for Kv7.2 and Kv7.3 was subcloned into the pIRESneo3 and pIREShygro3 expression vectors (Clonetech, Mountain View, Calif.), respectively, using NheI/BamHI sites introduced on either side of the start and stop codons. The construct was sequenced in its entirety to make sure that no mutations were introduced during the amplification and cloning process. Adapted from Wickendon, A D et al., Mol Pharmacol 58(3):591-600, 2000.
Chinese hamster ovary (CHO-K1) cells were transfected with human-Kv7.2 in a pIRESneo3 plasmid DNA vector (Clonetech, Mountain View, Calif.) and the h-Kv7.3 subunit in pIREShygro3 plasmid DNA vector using Lipofectamine-2000™ reagent (InVitrogen, San Diego, Calif.), according to the manufacturers instructions. Cells stably expressing the human Kv7.2 and Kv7.3 constructs were identified by their resistance to 400 ug/ml, geneticin (Gibco #10131-027) and 400 ug/ml, hygromycin-B (Invitrogen #10687-010). Clones were screened for functional expression using the whole-cell, voltage-clamp technique.
To determine if compounds can enhance voltage-dependent K-current in Kv7.2/7.3 channel containing CHO-K1 cells. Planar patch-clamp is used on IonWorks to functionally determine percent enhancement of Kv7.2/7.3-current at 0 mV (compared to retigabine) and potency (EC50) of compounds. Intrinsic activity and/or potency may be important in determining in vivo pharmacological efficacy of the compounds.
Serial dilutions were made in DMSO on an Apricot Personal Pipettor. Compounds were then diluted in external buffer on a 384 well assay plate (final DMSO concentration=0.3%).
Cells used in this assay were CHO-K1 expressing Kv7.2/7.3 channels. Cells were maintained in growth media containing: F-12 (Gibco #11765-054), 10% FBS (Invitrogen 16140-071), 1:100 Glutamax (Gibco #35050-061), 1:100 Penicillin/streptomycin (Gibco #15140-122), 400 ug/ml Geneticin (Gibco #10131-027), 400 ug/ml Hygromycin-B (Invitrogen #10687-010). Cells were grown in T-150 flasks to a confluence of approx. 80%. External recording buffer contained (in mM): NaCl (137), KCl (4), MgCl2 (1), CaCl2 (1.8), HEPES (10), and glucose (10), pH was adjusted to 7.3 with NaOH and osmolarity was adjusted to 300-305 mOsM with sucrose, if necessary. Internal buffer contained (in mM): Kgluconate (120), KCl (20), NaCl (5), MgCl2 (1), CaCl2 (2), HEPES (10), KF (2), and Na2ATP (2). Na2ATP was added to internal buffer right before use and pH was adjusted to 7.2 with KOH. Osmolarity of internal buffer was adjusted to 290-295 mOsM.
Cells were washed 1× with Ca/Mg free PBS and then removed from the plates with a 50:50 mixture of versene (Gibco 15040): 0.25% trypsin-EDTA (Gibco 25200) (4 min), triturated, centrifuged at ˜1000 rpm for 5 min, and resuspended at ˜2.5 million cells/ml in external buffer for recording on IonWorks. Potassium current measurements were made using an IonWorks Quattro instrument (MDS Corp.) using PatchPlate PPC substrates with 64 apertures per well. IonWorks calculated leak current was digitally subtracted from the total current acquired. Potassium current was elicited by stepping from −80 mV to 0 mV (2 sec) was measured in the absence and presence of increasing concentrations (½ log) of unknown compound (7-point concentration curves). Retigabine was run as a positive control and comparator on each PatchPlate PPC. Maximum increase in K current was determined by subtracting the current elicited in external buffer alone wells from the current elicited in wells with compound treatment (both at 0 mV). […]

Compound	EC50
CC(C)(C)CC(=O)Nc1c(C2CC2)nc2n(c1=O)CCCC2C(F)(F)F (single isomer, unassigned) [Example 5a, N-[2-Cyclopropyl-4-oxo-9-(trifluoromethyl)-6,7,8,9-tetrahydro-4H-pyrido[1,2-a]pyrimidin-3-yl]-3,3-dimethylbutanamide, (−)-enantiomer]	1.24 µM
Cc1cccn2c(=O)c(NC(=O)CC(C)(C)C)c(NC(C)C3CC3)nc12 (single isomer, unassigned) [Example 2a, N-{2-[(1-Cyclopropylethyl)amino]-9-methyl-4-oxo-4H-pyrido[1,2-a]pyrimidin-3-yl}-3,3-dimethylbutanamide, (+)-enantiomer]	0.227 µM
CC(C)(C)CC(=O)Nc1c(C2CC2)nc2n(c1=O)CCCC2C(F)(F)F (single isomer, unassigned) [Example 5b, N-[2-Cyclopropyl-4-oxo-9-(trifluoromethyl)-6,7,8,9-tetrahydro-4H-pyrido[1,2-a]pyrimidin-3-yl]-3,3-dimethylbutanamide, (+)-enantiomer]	0.298 µM
Cc1cccn2c(=O)c(NC(=O)CC(C)(C)C)c(NC(C)C3CC3)nc12 (single isomer, unassigned) [Example 2b, N-{2-[(1-Cyclopropylethyl)amino]-9-methyl-4-oxo-4H-pyrido[1,2-a]pyrimidin-3-yl}-3,3-dimethylbutanamide, (−)-enantiomer]	0.128 µM
CC(C)(C)CC(=O)Nc1c(NC2CCC2)nc2c(C(F)(F)F)cccn2c1=O [Example 6, N-[2-(Cyclobutylamino)-4-oxo-9-(trifluoromethyl)-4H-pyrido[1,2-a]pyrimidin-3-yl]-3,3-dimethylbutanamide]	0.0915 µM
Cc1cccn2c(=O)c(NC(=O)CC(C)(C)C)c(NC(C)C)nc12 [Example 3, 3,3-Dimethyl-N-[9-methyl-4-oxo-2-(propan-2-ylamino)-4H-pyrido[1,2-a]pyrimidin-3-yl]butanamide]	0.45 µM
CC(C)(C)CC(=O)Nc1c(C2CC2)nc2c(C(F)(F)F)cccn2c1=O [Example 4, N-[2-Cyclopropyl-4-oxo-9-(trifluoromethyl)-4H-pyrido[1,2-a]pyrimidin-3-yl]-3,3-dimethylbutanamide]	0.137 µM
CC(C)Nc1nc2c(C(F)(F)F)cccn2c(=O)c1NC(=O)CC(C)(C)C [Example 7, 3,3-Dimethyl-N-[4-oxo-2-(propan-2-ylamino)-9-(trifluoromethyl)-4H-pyrido[1,2-a]pyrimidin-3-yl]butanamide]	0.119 µM
CC(C)(C)CC(=O)Nc1c(C2CC2)nc2c(OC(C)(F)F)cccn2c1=O [Example 10, N-[2-Cyclopropyl-9-(1,1-difluoroethoxy)-4-oxo-4H-pyrido[1,2-a]pyrimidin-3-yl]-3,3-dimethylbutanamide]	0.306 µM
CC(C)Nc1nc2c(OC(C)(F)F)cccn2c(=O)c1NC(=O)CC(C)(C)C [Example 9, N-[9-(1,1-Difluoroethoxy)-4-oxo-2-(propan-2-ylamino)-4H-pyrido[1,2-a]pyrimidin-3-yl]-3,3-dimethylbutanamide]	0.369 µM
CC[C@@H](C)Nc1nc2c(C)cccn2c(=O)c1NC(=O)CC(C)(C)C [Example 1, N-{2-[(2R)-Butan-2-ylamino]-9-methyl-4-oxo-4H-pyrido[1,2-a]pyrimidin-3-yl}-3,3-dimethylbutanamide]	0.168 µM

Second part, the molecule after the results:

EC50	Compound
0.307 µM	CC[C@@H](C)Nc1nc2n(c(=O)c1NC(=O)CC(C)(C)C)CCCC2C (single isomer, unassigned; diastereomer 1) [Example 11a]
0.942 µM	CC[C@@H](C)Nc1nc2n(c(=O)c1NC(=O)CC(C)(C)C)CCCC2C (single isomer, unassigned; diastereomer 2) [Example 11b]
0.412 µM	CC(C)Nc1nc2n(c(=O)c1NC(=O)CC(C)(C)C)CCCC2C(F)(F)F (single isomer, unassigned) [Example 8b, 3,3-Dimethyl-N-[4-oxo-2-(propan-2-ylamino)-9-(trifluoromethyl)-6,7,8,9-tetrahydro-4H-pyrido[1,2-a]pyrimidin-3-yl]butanamide, (+) enantiomer]
0.382 µM	CC(C)Nc1nc2n(c(=O)c1NC(=O)CC(C)(C)C)CCCC2C(F)(F)F (single isomer, unassigned) [Example 8a, 3,3-Dimethyl-N-[4-oxo-2-(propan-2-ylamino)-9-(trifluoromethyl)-6,7,8,9-tetrahydro-4H-pyrido[1,2-a]pyrimidin-3-yl]butanamide, (−) enantiomer]
